# Laboratory results: patent US10640534B2 (Agios Pharmaceuticals, Inc., priority 2012, dated 2020)
# Test system: U87MG cells
# Assay: Cellular assay, inhibition of 2-HG production in U87MG cells
# Assay type: cell-based
# Conditions: Homo sapiens, U-87 MG, 48 h
# Protocol: Cells (HT1080 or U87MG) are grown in T125 flasks in DMEM containing 10% FBS, 1× penicillin/streptomycin and 500 ug/mL G418 (present in U87MG cells only). They are harvested by trypsin and seeded into 96 well white bottom plates at a density of 5000 cell/well in 100 ul/well in DMEM with 10% FBS. […] Cells are incubated overnight at 37° C. in 5% CO2. The next day test compounds are made up at 2× the final concentration and 100 ul are added to each cell well. The final concentration of DMSO is 0.2% and the DMSO control wells are plated in row G. The plates are then placed in the incubator for 48 hours. […] The cell plate is placed back in the incubator for another 24 hours. At 72 hours post compound addition, 10 mL/plate of Promega Cell Titer Glo reagent is thawed and mixed. The cell plate is removed from the incubator and allowed to equilibrate to room temperature. Then 100 ul of Promega Cell Titer Glo reagent is added to each well of media. The cell plate is then placed on an orbital shaker for 10 minutes and then allowed to sit at room temperature for 20 minutes. The plate is then read for luminescence with an integration time of 500 ms.
row,IC50,Structure (SMILES)
1,< 100 nM,"N#Cc1ccnc(N2C(=O)CC[C@H]2C(=O)N(c2cc(F)cc(S(N)(=O)=O)c2)[C@H](C(=O)NC2CC(F)(F)C2)c2ccccc2Cl)c1 [Compound 158, (2S)—N-(1-(2-chlorophenyl)-2-(3,3-difluorocyclobutylamino)-2-oxo-ethyl)-1-(4-cyanopyridin-2-yl)-N-(3-fluoro-5-sulfamoylphenyl)-5-oxopyrrolidine-2-carboxamide]"
2,< 100 nM,"N#Cc1ccnc(N2C(=O)[C@H](O)C[C@H]2C(=O)N(c2cccc(F)c2)[C@H](C(=O)NC2CC(F)(F)C2)c2ccccc2Cl)c1 [Compound 113, (2S,4R)—N—((S)-1-(2-Chlorophenyl)-2-(3,3-difluorocyclobutylamino)-2-oxoethyl)-1-(4-cyanopyridin-2-yl)-N-(3-fluorophenyl)-4-hydroxy-5-oxopyrrolidine-2-carboxamide]"
3,< 100 nM,"N#Cc1ccnc(N2C(=O)OCC[C@H]2C(=O)N(c2cncc(F)c2)[C@H](C(=O)NC2CC(F)(F)C2)c2ccccc2Cl)c1 [Compound 143, (S)—N—((S)-1-(2-Chlorophenyl)-2-((3,3-difluorocyclobutyl)amino)-2-oxoethyl)-3-(4-cyanopyridin-2-yl)-N-(5-fluoropyridin-3-yl)-2-oxo-1,3-oxazinane-4-carboxamide]"
4,< 100 nM,"N#Cc1ccnc(N2C(=O)N(CCO)C[C@H]2C(=O)N(c2cccc(F)c2)C(C(=O)NC2CC(F)(F)C2)c2ccccc2Cl)c1 (stereo partly drawn) [Compound 112, (4S)—N-(1-(2-Chlorophenyl)-2-(3,3-difluorocyclobutyl-amino)-2-oxoethyl)-3-(4-cyanopyridin-2-yl)-N-(3-fluorophenyl)-1-(2-hydroxyeth-yl)-2-oxoimidazolidine-4-carboxamide]"
5,< 100 nM,"CCOC(=O)CN1C[C@@H](C(=O)N(c2cccc(F)c2)C(C(=O)NC2CC(F)(F)C2)c2ccccc2Cl)N(c2nccc(C#N)n2)C1=O (stereo partly drawn) [Compound 111, Ethyl 2-((4S)-4-((1-(2-chlorophenyl)-2-((3,3-difluorocyclobutyl)amino)-2-oxoethyl)(3-fluorophenyl)carbamoyl)-3-(4-cyanopyrimidin-2-yl)-2-oxoimidazolidin-1-yl)acetate]"
6,< 100 nM,"N#Cc1ccnc(N2C(=O)CC[C@H]2C(=O)N(c2cccc(F)c2)[C@H](C(=O)NC2CC(F)(F)C2)c2ccccc2Cl)n1 [Compound 68, (S)—N—((S)-1-(2-Chlorophenyl)-2-((3,3-difluorocyclobutyl)amino)-2-oxoethyl)-1-(4-cyanopyrimidin-2-yl)-N-(3-fluorophenyl)-5-oxopyrrolidine-2-carboxamide]"
7,< 100 nM,"N#Cc1ccnc(N2C(=O)CC[C@H]2C(=O)N(c2cccc(F)c2)[C@H](C(=O)NC2CCC(F)(F)CC2)c2ccccc2Cl)c1F [Compound 83, (S)—N—((S)-1-(2-Chlorophenyl)-2-((4,4-difluorocyclohexyl)amino)-2-oxoethyl)-1-(4-cyano-3-fluoropyridin-2-yl)-N-(3-fluorophenyl)-5-oxopyrrolidine-2-carboxamide]"
8,< 100 nM,"N#Cc1ccnc(N2C(=O)CC[C@H]2C(=O)N(c2cc(F)cc(F)c2)[C@H](C(=O)NC2CC(F)(F)C2)c2cc(Cl)ccc2Cl)c1 [Compound 201, (S)-1-(4-Cyanopyridin-2-yl)-N—((S)-1-(2,5-dichlorophenyl)-2-((3,3-difluorocyclobutyl)-amino)-2-oxoethyl)-N-(3,5-difluorophenyl)-5-oxopyrrolidine-2-carboxamide]"
9,< 100 nM,"N#Cc1cc(F)cc(N(C(=O)[C@@H]2CCC(=O)N2c2cc(C#N)ccn2)[C@H](C(=O)NC2CC(F)(F)C2)c2ccccc2F)c1 [Compound 207, (S)—N-(3-Cyano-5-fluorophenyl)-1-(4-cyanopyridin-2-yl)-N—((S)-2-((3,3-difluorocyclobutyl)amino)-1-(2-fluorophenyl)-2-oxoethyl)-5-oxopyrrolidine-2-carboxamide]"
10,< 100 nM,"N#Cc1ccnc(N2C(=O)CC[C@H]2C(=O)N(c2cccc(C3(O)CC3)c2)[C@H](C(=O)NC2CC(F)(F)C2)c2ccccc2Cl)c1 [Compound 140, (S)—N—((S)-1-(2-Chlorophenyl)-2-(3,3-difluorocyclobutylamino)-2-oxoethyl)-1-(4-cyanopyridin-2-yl)-N-(3-(1-hydroxycyclopropyl)phenyl)-5-oxopyrrolidine-2-carboxamide]"
11,< 100 nM,O=C(NC1CC(F)(F)C1)C(c1ccccc1Cl)N(C(=O)C1CCC(=O)N1c1cnccn1)c1cccc(F)c1 (stereo not shown) [Compound 18]
12,100 to 500 nM,"O=C(NC1CC(F)(F)C1)C(c1ccccc1Cl)N(C(=O)[C@@H]1CCCC(=O)N1c1ncccn1)c1cccc(F)c1 (stereo in doubt) [Compound 20, (S)—N—((R)-1-(2-Chloro-phenyl)-2-((3,3-difluorocyclobutyl)amino)-2-oxoethyl)-N-(3-fluoro-phenyl)-6-oxo-1-(pyrimidin-2-yl)piperidine-2-carboxamide]"
13,< 100 nM,"CC(C)(C)OC(=O)N1CC(=O)N(c2nccc(C#N)n2)[C@H](C(=O)N(c2cc(F)cc(F)c2)[C@H](C(=O)NC2CC(F)(F)C2)c2ccccc2Cl)C1 [Compound 98, (3S)-tert-butyl 3-((1-(2-chlorophenyl)-2-((3,3-difluorocyclobutyl)amino)-2-oxoethyl)(3,5-difluorophenyl)carbamoyl)-4-(4-cyanopyrimidin-2-yl)-5-oxopiperazine-1-carboxylate]"
14,< 100 nM,"N#Cc1ccnc(N2C(=O)[C@@H](O)C[C@H]2C(=O)N(c2cccc(F)c2)[C@H](C(=O)NC2CC(F)(F)C2)c2ccccc2Cl)c1 [Compound 118, (2S,4S)—N—((S)-1-(2-Chlorophenyl)-2-(3,3-difluorocyclobutylamino)-2-oxoethyl)-1-(4-cyano-pyridin-2-yl)-N-(3-fluorophenyl)-4-hydroxy-5-oxopyrrolidine-2-carboxamide]"
15,< 100 nM,"Cn1ccc2cc(N(C(=O)[C@@H]3CCC(=O)N3c3cc(C#N)ccn3)[C@H](C(=O)NC3CC(F)(F)C3)c3ccccc3Cl)ccc21 [Compound 209, (S)—N—((S)-1-(2-Chlorophenyl)-2-((3,3-difluorocyclobutyl)amino)-2-oxoethyl)-1-(4-cyanopyridin-2-yl)-N-(1-methyl-1H-indol-5-yl)-5-oxopyrrolidine-2-carboxamide]"
16,< 100 nM,CNS(=O)(=O)c1cccc(N(C(=O)[C@@H]2CCC(=O)N2c2cc(C#N)ccn2)[C@H](C(=O)NC2CC(F)(F)C2)c2ccccc2Cl)c1 [Compound 157]
17,< 100 nM,"N#Cc1cc(F)cc(N(C(=O)[C@@H]2C[C@@H](O)C(=O)N2c2cc(C#N)ccn2)C(C(=O)NC2CC(F)(F)C2)c2ccccc2Cl)c1 (stereo partly drawn) [Compound 169, (2S,4R)—N-(1-(2-Chlorophenyl)-2-(3,3-difluorocyclobutylamino)-2-oxoethyl)-N-(3-cyano-5-fluorophenyl)-1-(4-cyanopyridin-2-yl)-4-hydroxy-5-oxopyrrolidine-2-carboxamide]"
18,< 100 nM,"N#Cc1cc(F)cc(N(C(=O)[C@@H]2CCC(=O)N2c2cc(C#N)ccn2)[C@H](C(=O)NC2CCC(F)(F)CC2)c2ccccc2Cl)c1 [Compound 184, (S)—N—((S)-1-(2-Chlorophenyl)-2-(4,4-difluorocyclohexylamino)-2-oxoethyl)-N-(3-cyano-5-fluorophenyl)-1-(4-cyanopyridin-2-yl)-5-oxopyrrolidine-2-carboxamide]"
19,< 100 nM,"N#Cc1ccnc(N2C(=O)CC[C@H]2C(=O)N(c2cccc(F)c2)[C@H](C(=O)NC2CC(F)(F)C2)c2ccccc2Cl)c1F [Compound 82, (S)—N—((S)-1-(2-Chlorophenyl)-2-((3,3-difluorocyclobutyl)amino)-2-oxoethyl)-1-(4-cyano-3-fluoropyridin-2-yl)-N-(3-fluorophenyl)-5-oxopyrrolidine-2-carboxamide]"
20,< 100 nM,"N#Cc1cc(F)cc(N(C(=O)[C@@H]2CCC(=O)N2c2cc(C#N)ccn2)[C@H](C(=O)NC2CC(F)(F)C2)c2ccccc2)c1 [Compound 211, (S)—N-(3-Cyano-5-fluorophenyl)-1-(4-cyanopyridin-2-yl)-N—((S)-2-(3,3-difluorocyclobutyl-amino)-2-oxo-1-phenylethyl)-5-oxopyrrolidine-2-carboxamide]"
21,< 100 nM,"N#Cc1ccnc(N2C(=O)OCC[C@H]2C(=O)N(c2cc(F)cc(F)c2)[C@H](C(=O)NC2CC(F)(F)C2)c2ccccc2Cl)n1 [Compound 154, (S)—N—((S)-1-(2-Chlorophenyl)-2-((3,3-difluorocyclobutyl)amino)-2-oxoethyl)-3-(4-cyanopyrimidin-2-yl)-N-(3,5-difluorophenyl)-2-oxo-1,3-oxazinane-4-carboxamide]"
22,< 100 nM,"N#Cc1ccnc(N2C(=O)[C@H](O)C[C@H]2C(=O)N(c2cc(F)cc(F)c2)[C@H](C(=O)NC2CC(F)(F)C2)c2ccccc2Cl)n1 [Compound 117, (2S,4R)—N—((S)-1-(2-Chlorophenyl)-2-((3,3-difluorocyclobutyl)amino)-2-oxoethyl)-1-(4-cyanopyrimidin-2-yl)-N-(3,5-difluorophenyl)-4-hydroxy-5-oxopyrrolidine-2-carboxamide]"
23,< 100 nM,N#Cc1ccnc(N2C(=O)CC[C@H]2C(=O)N(c2cccc(F)c2)[C@H](C(=O)NC2CCC(F)(F)CC2)c2ccccc2Cl)c1 [Compound 53]
24,< 100 nM,"O=C(NC1CC(F)(F)C1)[C@H](c1ccccc1Cl)N(C(=O)[C@@H]1COC(=O)N1c1cscn1)c1cccc(F)c1 [Compound 72, (S)—N—((S)-1-(2-Chlorophenyl)-2-((3,3-difluorocyclobutyl)amino)-2-oxoethyl)-N-(3-fluorophenyl)-2-oxo-3-(thiazol-4-yl)oxazolidine-4-carboxamide]"
25,100 to 500 nM,N#Cc1ccc(N2C(=O)CC[C@H]2C(=O)N(c2cccc(F)c2)[C@H](C(=O)NC2CC(F)(F)C2)c2ccccc2Cl)nc1 [Compound 47]
